The record followed here is PubChem BioAssay AID179 (DTP/NCI, 2004).

This assay deals with CEM cells HIV-1 protection, formazan growth assay. The experiment in a line: NCI AIDS Antiviral Assay. Conditions: for IC50: measured here: growth of uninfected CEM cells. A digest of the protocol: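 Protection of CEM cells against HIV-1 measured as cell growth via soluble formazan read-out, with five concentrations tested on both infected and uninfected cells; failure to protect may reflect toxicity.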

Where “and” joins values, the source holds several entries; their conditions need not be identical. Equal entries are not always repeated. Calls of active or inactive are those of the source.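 Rule for the calls: active = compounds giving half or more protection of infected cells from virus-caused growth loss, again on retest; inactive = the rest.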 Bounds are passed on as bounds.

In the case of `CC1=NOCC(=O)N1`, the EC50 is more than 2190 µM and the IC50 was more than 2190 µM. Consider `O=C(Cc1ccccc1)NNc1nc(NNC(=O)c2ccncc2)nc(Nc2ccccc2)n1`, for which the EC50 was more than 200 µM and the IC50 is more than 200 µM. For `CC(=O)OC(C)(C)/C=C/C(=O)[C@](C)(O)[C@H]1[C@H](O)C[C@@]2(C)[C@@H]3CC=C4[C@@H](C=C(O)C(=O)C4(C)C)[C@]3(C)C(=O)C[C@]12C`, the EC50 was more than 0.2 µM and the IC50 is 0.00676 µM.

For `C/C=C/C[P+](c1ccccc1)(c1ccccc1)c1ccccc1`, the EC50 is more than 200 µM; the IC50 is 1.48 µM and 1.32 µM. As to `CCC(=O)[O][Bi]([c]1ccccc1)[c]1ccccc1`, the EC50 was more than 30.9 µM and the IC50 was 5.89 µM. For the compound `O=c1[nH]c(=O)n(C2CC(O)C(CO)O2)cc1C(OCC(F)(F)F)OCC(F)(F)F` (configuration not stated), the EC50 is more than 251 µM and the IC50 amounted to 12 µM. As for `NC(=O)C(=CNc1nc(-c2ccc(Cl)c(Cl)c2)cs1)C(N)=O`, the EC50 was more than 200 µM and the IC50 worked out at 102 µM.

Turning to `Cn1c(=O)c(CC(C(=O)O)C(=O)O)nc2ccccc21`, the EC50 is more than 200 µM and the IC50 is more than 200 µM.

With `O=C(CCCn1ccnc1[N+](=O)[O-])NCCn1cnc([N+](=O)[O-])n1`, the EC50 is more than 200 µM and the IC50 was more than 200 µM. As for `CC1(C)N=C(c2ccccn2)C(c2ccccn2)=NC1(C)C`, the EC50 is more than 851 µM and the IC50 turned out to be 661 µM. `COc1c(C)c(C/C=C(\C)CC/C=C(\C)CCC=C(C)C)c(OC)c(OC)c1OC`: the EC50 is more than 200 µM and the 50% inhibitory concentration (IC50) was more than 200 µM. With `Cc1ccccc1NC(=O)CC(=O)NNCC(=O)Nc1nnc(-c2ccccc2)s1`, the EC50 is more than 61.7 µM and the IC50 stood at 46.8 µM. On the same counts, the results for `Cc1cccc(O)c1-c1nnc(CCCCCCCCc2nnc(-c3c(C)cccc3O)n2N)n1N` are more than 200 µM and 2.95 µM.

As to `COC(=O)C(C(=O)C(=O)Nc1c(C)cccc1C)c1cnc2ccccc2n1` (configuration not stated), the EC50 is more than 50.1 µM and the IC50 is more than 50.1 µM. Take `O=C(CSc1nnc(Cc2ccccc2)o1)Nc1ccc(Cl)cc1[N+](=O)[O-]`: the EC50 was more than 617 µM and the IC50 was 25.1 µM. For `Cc1ccc(-c2nc3ccccc3c(=O)n2NC2OC(CO)C(O)C(O)C2O)cc1` (configuration not stated), the outcome was inactive. As to `N#C/C(=C\NC(=S)c1ccncc1)c1nc2ccccc2s1`, the EC50 is more than 200 µM and the IC50 is 145 µM. On the same counts, the results for `OC(C1=C/C(=C\c2ccncc2)c2ccccc21)c1ccncc1` (configuration not stated) are more than 83.2 µM and 5.25 µM. The corresponding values for `CCN(CC)CC(=O)Nc1ccc(C(=O)OCC(C)C)cc1` are more than 200 µM and 26.9 µM. On the same counts, the results for `COCN1C(=O)[C@@H]2C[C@@H](O)CN2C(=O)c2ccccc21` are more than 200 µM and more than 200 µM. Regarding `Cc1cn(C2CCC(CO)(C(F)(F)F)O2)c(=O)[nH]c1=O` (configuration not stated), the EC50 is more than 200 µM and the IC50 is more than 200 µM. For the compound `COc1ccc(/C(Cl)=C(\C=O)c2ccccc2)cc1OC`, the outcome was inactive. Still for that read-out and setting: with `O=C(CC(=O)Nc1ccccc1)NNC(Sc1ccccc1)c1cc(N=Nc2ccc(Br)cc2)ccc1O` (configuration not stated) the entry was “inactive”. Regarding `COC1(C)CP(=O)(OC(C)C)CC(C)=C1Cl` (configuration not stated), the EC50 was more than 20 µM and the IC50 turned out to be 7.59 µM.

Regarding `CN1CC[C@@H](c2c(O)cc(O)c3c(=O)cc(-c4ccccc4Cl)oc23)[C@@H](O)C1`, the EC50 was 0.01 µM and the IC50 was determined as 0.0468 µM. In the case of `C=CCC1CC(n2cc(C)c(=O)[nH]c2=O)OC1CO[Si](C)(C)C(C)(C)C` (configuration not stated), the EC50 was more than 200 µM and the IC50 turned out to be 18.2 µM.

`COc1ccc(/C=C2\CCC(C)c3c2nc(N)c(C#N)c3-c2ccc(OC)c(OC)c2)cc1OC` (configuration not stated): the result was inactive. As to `CN(C)CC[PH+](c1ccccc1)c1ccccc1.CN(C)CC[PH+](c1ccccc1)c1ccccc1.[Cl-].[Pd+2]`, the EC50 was more than 200 µM and the IC50 was more than 200 µM. Turning to `CCC(CO)NC(=O)Nc1ccc(S(=O)(=O)c2ccc([N+](=O)[O-])cc2)cc1` (configuration not stated), the EC50 is more than 200 µM and the IC50 was determined as 12 µM. On the same counts, the results for `N.N.N.N.N.[Cl-].[Co+3].c1ccc(-c2nn[n-]n2)cc1` are more than 692 µM and more than 692 µM. On the same counts, the results for `O=C(O)c1cc(C(=C(c2cc(Cl)c(O)c(C(=O)O)c2)c2cc(Cl)c(O)c(C(=O)O)c2)c2cc(Cl)c(O)c(C(=O)O)c2)cc(Cl)c1O` are 87.1 µM and 95.5 µM. The corresponding values for `C/C(CC(=O)NCCc1ccccc1)=N\NS(=O)(=O)c1ccc(C)cc1` are more than 347 µM and 339 µM. Turning to `Cc1ccc(NC(=O)NC(=O)CCl)cc1`, the EC50 is more than 31.6 µM and the IC50 came to 7.76 µM. On to `CN=C(NN)NS(=O)(=O)c1cc(C)c(Cl)cc1S`, for which the result was inactive. In the case of `CC(C)OP(=O)(OC(C)C)/C(C#N)=C/c1c[nH]c2ccccc12`, the EC50 was more than 200 µM and the IC50 is more than 200 µM. On to `CCN(CC)c1nc(NC2CCCCC2)c2nc(N(CC)CC)nc(NC3CCCCC3)c2n1`, for which the EC50 was more than 11.2 µM and the IC50 is 0.537 µM.

Consider `O=c1c2c(-c3ccccc3)onc2n(-c2ccccc2)c(=O)n1-c1ccccc1`, for which the EC50 was more than 200 µM and the IC50 turned out to be 10.5 µM. Take `CC(=O)CSc1c(-c2ccccc2)c(=O)n(-c2ccccc2)c(=S)n1-c1ccccc1`: the EC50 was more than 200 µM and the IC50 is 79.4 µM. Take `O=C(NC(=S)Nc1ccc(Cl)c(Cl)c1)c1cccc([N+](=O)[O-])c1`: the EC50 was more than 200 µM and the IC50 was 17 µM. Take `O=C1OC(C(O)CO)C(O)=C1Nc1ccc(S(=O)(=O)c2ncc(NC3=C(O)C(C(O)CO)OC3=O)s2)cc1` (configuration not stated): the EC50 was more than 200 µM and the IC50 worked out at 21.9 µM.

Regarding `Nc1ncnc2sc(Nc3ccccc3)nc12`, the EC50 is more than 53.7 µM and the half-maximal inhibitory concentration (IC50) stood at 33.1 µM. With `O=C1/C(=C/c2ccc(O)cc2)Oc2ccccc21`, the EC50 was more than 200 µM and the IC50 is 151 µM. With `C/C(=C\c1ccc([N+](=O)[O-])cc1)C(=O)O`, the EC50 is more than 174 µM and the concentration for half-maximal inhibition (IC50) is more than 174 µM. Regarding `O=C(Cc1ccccc1)NN1C(=O)C(Cl)C1c1ccc(O)cc1` (configuration not stated), the EC50 is more than 204 µM and the IC50 was 170 µM. As to `c1ccc(CCN(Cc2nc3ccccc3[nH]2)Cc2nc3ccccc3[nH]2)cc1`, the EC50 was more than 200 µM and the IC50 was determined as 10.5 µM. On the same counts, the results for `O=c1[nH]c2ccccc2c(O)c1-c1ccccc1` are more than 200 µM and more than 200 µM. On the same counts, the results for `O=C(O)c1ccc(-n2[se]c3ccccc3c2=O)cc1` are 7.24 µM and 20.4 µM. `CCOc1ccccc1N1C(=O)C(=O)C(c2nc3ccccc3o2)C(=O)C1=O`: the result was inactive. On to `Cc1ccc(NC(=O)c2ccccc2)c(=O)o1`, for which the EC50 is more than 200 µM and the concentration for half-maximal inhibition (IC50) was more than 200 µM.

Regarding `CSc1n[nH]c2c1c(C)nn2-c1ccccc1`, the EC50 was more than 200 µM and the IC50 amounted to 95.5 µM. The corresponding values for `CCOC(=O)/C(=C\c1ccc(C#N)cc1)[Se]c1ccccc1` are more than 52.5 µM and more than 52.5 µM.

For `NC(=S)C(=S)N/C=C(/c1ccc(Cl)cc1)S(=O)(=O)Cc1ccc(Cl)cc1`, the outcome was inactive.
